Like-named read-outs stand apart in the source and are kept apart here.
Columns and labels:
[1] = target: T1, ferroportin (Fpn) (Homo sapiens, UniProt Q9NP59); assay: Inhibition of ferroportin mediated iron export activity in an iron response assay (BLA reporter, HEK-293 cell line #354); assay type: cell-based; settings: for IC50: HEK-293 cell line #354, BLA reporter, tested as 3HCl-salts, n=3, read-out: Iron response (HEK354 Blazer) IC50; for EC50: average of multiple measurements, iron response assay, 3HCl-salts, read-out: BLAzer EC50
T1 construct: expressed in transfected cells; host or cells: HEK-293 cell line #354 (derivative of HEK-293 Tet-ON Advanced)
T1 sequence (Q9NP59 1-571): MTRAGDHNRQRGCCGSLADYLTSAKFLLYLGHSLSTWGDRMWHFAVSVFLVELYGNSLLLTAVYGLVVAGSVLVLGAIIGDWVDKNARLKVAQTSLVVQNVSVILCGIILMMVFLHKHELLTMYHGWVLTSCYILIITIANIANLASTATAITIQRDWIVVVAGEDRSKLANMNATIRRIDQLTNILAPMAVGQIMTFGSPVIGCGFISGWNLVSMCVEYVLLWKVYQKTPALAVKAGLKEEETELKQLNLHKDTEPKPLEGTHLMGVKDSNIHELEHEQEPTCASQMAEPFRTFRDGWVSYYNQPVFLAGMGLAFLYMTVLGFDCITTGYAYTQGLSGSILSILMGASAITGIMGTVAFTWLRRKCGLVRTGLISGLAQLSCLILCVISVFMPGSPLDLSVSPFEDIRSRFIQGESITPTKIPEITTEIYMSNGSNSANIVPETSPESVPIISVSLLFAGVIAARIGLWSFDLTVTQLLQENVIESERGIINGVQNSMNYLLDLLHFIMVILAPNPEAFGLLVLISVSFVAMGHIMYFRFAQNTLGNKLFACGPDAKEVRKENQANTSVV
Source text: Intracellular iron levels are indirectly measured in this assay by monitoring the activity of a beta-lactamase (BLA) reporter gene fused to the human ferritin promoter and the associated iron regulatory element (IRE) contained within the 5′ untranslated region of the ferritin mRNA. Expression of ferroportin (Fpn) in such a cell line leads to iron efflux and lower iron levels as reflected by lower activity of the reporter gene. On the other hand, inhibition of Fpn-mediated iron efflux results in elevated cellular iron levels which is detected as increased reporter gene activity. Small molecular weight Fpn inhibitor compounds were tested for dose-dependent effects in this in vitro iron response assay as described below.
The HEK-293 cell line #354 was generated by stable integration of (i) a human Fpn-GFP fusion construct inserted in a derivative of the doxycycline-inducible pTRE-Tight-BI plasmid (Clontech, Cat. 631068) and (ii) a human ferritin promoter-BLA reporter gene into a derivative of the HEK-293 Tet-ON Advanced cell line (Clontech). To generate the ferritin-BLA reporter gene construct, a 1.4 kb fragment of the human ferritin H promoter was amplified by PCR from human genomic DNA (forward primer 5′-[…]-3′; reverse primer 5′-GGCGGCGACTAAGGAGAGG-3′) and inserted in front of the BLA gene present in the pcDNA™6.2/cGeneBLAzer™-DEST plasmid (Invitrogen, Cat. 12578-043) thereby replacing the original CMV promoter and placing the IRE that regulates translation of the ferritin gene ca. 170 bp upstream of the start codon of the reporter gene. #354 cells were harvested from ca. 80% confluent cultures, seeded at 1.8x10^5 cells/ml in DMEM/F12 GlutaMAX™ medium (Invitrogen, Cat. 31331-028) containing 10% FBS (Clontech, Cat. 631106), 1% Penicillin-Streptomycin, 200 µg/ml Hygromycin B (Invitrogen, Cat. 10687-010), Blasticidin 5 µg/ml, (Invitrogen, Cat. R210-01), 4 µg/ml doxycycline (Clontech, Cat. 631311), 50 µl per well of 384 well PDL-coated plates and grown at 37° C. with 5% CO2. After overnight incubation, 10 µl/well of dilution series of the test compounds were added in quadruplicates and plates were further incubated overnight at 37° C. with 5% CO2. Cells were washed 3 times with HBSS leaving 25 µl per well. BLA activity was detected by adding 5 µl/well of the GeneBlazer reagent CCF4-AM (Invitrogen, Cat. K1085) to the cells. After incubation of the plates in the dark at 18° C. for 60 min., blue and green fluorescence signals were measured in a Safire2 fluorescence plate reader (Tecan) with excitation at 410 nm and emissions at 458 nm (blue) and 522 nm (green). The ratio of blue/green fluorescence as a measure for BLA activity was calculated and EC50 values were determined with the calculated blue/green fluorescence ratios as described for the hepcidin internalization assay.

[2] = target: T2, human Fpn-GFP fusion protein (Homo sapiens, UniProt Q9NP59); assay: Ferroportin internalization and degradation assay (FACS, HEK-293 cell line #354); assay type: cell-based
T2 construct: expressed in transfected cells; host or cells: HEK-293 cell line #354 (derivative of HEK-293 Tet-ON Advanced)
T2 sequence (Q9NP59 1-571): T1 sequence (Q9NP59 1-571)
Experimental: HEK-293 cell line #354 (described in 11.3) was used to measure the capacity of the compounds to induce internalization and degradation of ferroportin (Fpn) by fluorescence activated cell sorting (FACS). Growing HEK-293 #354 cells in doxycycline containing media induced expression of human Fpn-GFP fusion protein on the cell surface. […] Small molecular weight Fpn inhibitor compounds were tested for dose-dependent effects on the Fpn-GFP mean fluorescence intensity (MFI) on HEK-293 cell line #354, as described below.
HEK#354 cells were harvested from ca. 80% confluent cultures, seeded at 0.6x10^6 cells/ml in DMEM/F12 GlutaMAX™ medium (Invitrogen, Cat. 31331-028) containing 10% FBS (Clontech, Cat. 631106), 1% Penicillin-Streptomycin (Invitrogen, Cat. 15140-122), 200 µg/ml Hygromycin B (Invitrogen, Cat. 10687-010), Blasticidin 5 µg/ml, (Invitrogen, Cat. R210-01), 4 µg/ml doxycycline (Clontech, Cat. 631311), 50 µl per well of 384 well plates (Greiner; Cat. 781091) and grown at 37° C. with 5% CO2. After overnight incubation, 10 µl/well of dilution series of the test compounds were added in quadruplicates and plates were further incubated overnight at 37° C. with 5% CO2. Cells were washed once with FACS buffer (PBS containing 1% FBS, 2 mM EDTA and 0.05% NaN3), harvested in FACS buffer with 0.5 µg/ml propidium iodide (Sigma, Cat. P4864) and analyzed in a flow cytometer (CANTO^tm II, BD Biosciences) equipped with high throughput sampler. Live HEK#354 cells were gated as propidium iodide negative population and analyzed for expression of Fpn-GFP. MFI of Fpn-GFP of > 2000 live cells for each compound dilution was calculated using FlowJo (Tree Star’s, Oregon) and the potency of the Fpn-inhibitors to induce internalization and degradation of Fpn-GFP was calculated as described for the hepcidin internalization assay. EC50 data of the Compounds (II) and (II′) tested in the ferroportin internalization and degradation assay by FACS are listed in Table 4. The average EC50 value of hepcidin in this assay is 0.004 ± 0.002 µM.

[3] = HEK-293 cell line #354, FACS, tested as 3HCl-salts, n=2, read-out: Fpn internalization and degradation (HEK354 FACS) IC50
[4] = average of multiple measurements, HEK-293 #354 FACS, 3HCl-salts, read-out: EC50 (ferroportin internalization and degradation assay)

| IC50 [1] [nM] | EC50 [1] [nM] | DC50 [2, 3] [nM] | DC50 [2, 4] [nM] | Structure (SMILES) |
| --- | --- | --- | --- | --- |
| 156 | 156 | 119 | 119 | O=C(NCc1ncccc1F)c1coc(CCNCCc2nc3ccccc3[nH]2)n1 [Compound (II)] |
| 168 | 168 | 161 | 161 | O=C(NCc1ncccc1Br)c1coc(CCNCCc2nc3ccccc3[nH]2)n1 [Compound (II′)] |
| 39 |  | 6 |  | CC[C@H](C)[C@@H]1NC(=O)[C@@H](NC(=O)[C@@H](NC(=O)[C@@H]2CCCN2C(=O)[C@H](Cc2ccccc2)NC(=O)[C@H](Cc2c[nH]cn2)NC(=O)[C@@H](NC(=O)[C@@H](N)CC(=O)O)[C@@H](C)O)[C@@H](C)CC)CSSC[C@@H](C(=O)N[C@@H](CCCCN)C(=O)N[C@H](C(=O)O)[C@@H](C)O)NC(=O)[C@@H]2CSSC[C@@H]3NC(=O)[C@@H]4CSSC[C@H](NC(=O)[C@H](Cc5ccccc5)NC1=O)C(=O)N[C@@H](CSSC[C@H](NC(=O)[C@H](CCCCN)NC(=O)[C@H](CO)NC(=O)[C@H](CCCNC(=N)N)NC(=O)[C@H](Cc1c[nH]cn1)NC3=O)C(=O)NCC(=O)N[C@@H](CCSC)C(=O)N2)C(=O)NCC(=O)N4 [hepcidin, reference compound] |

Source: US20230212159A1, “Process for the Production of Ferroportin Inhibitors” (Vifor (International) AG, priority 2020, published 2023)
